Reference: article PMC3785478, “Crystal Structures of Human Muscle Fructose-1,6-Bisphosphatase: Novel Quaternary States, Enhanced AMP Affinity, and Allosteric Signal Transmission Pathway” (PLoS ONE, 2013)

Key:
[1] = target: T1, human muscle fructose-1,6-bisphosphatase (hmFru-1,6-Pase) (Homo sapiens, UniProt O00757, Q33R); assay: also coupled enzyme inhibition assay (I0.[…]); format: biochemical
T1 construct: gene FBP2; model includes residues 11–54 and 72–335
T1 sequence (O00757 2-339 Q33R): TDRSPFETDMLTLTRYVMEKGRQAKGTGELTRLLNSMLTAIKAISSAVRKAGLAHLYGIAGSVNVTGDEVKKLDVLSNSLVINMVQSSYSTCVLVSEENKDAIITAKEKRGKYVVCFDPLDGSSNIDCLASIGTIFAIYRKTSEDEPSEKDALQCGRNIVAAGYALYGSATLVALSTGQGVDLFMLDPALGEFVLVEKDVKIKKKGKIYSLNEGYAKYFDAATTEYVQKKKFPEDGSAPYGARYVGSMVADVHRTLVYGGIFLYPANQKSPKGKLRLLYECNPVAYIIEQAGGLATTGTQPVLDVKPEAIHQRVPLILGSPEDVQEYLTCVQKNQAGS

[2] = target: T2, human muscle fructose-1,6-bisphosphatase (hmFru-1,6-Pase) (Homo sapiens, UniProt O00757); assay: coupled enzyme assay (G6PDH/phosphoglucose isomerase, NADP, […] nm), AMP titration; format: biochemical; conditions: read-out: Wild-type Fru-1,6-Pase
T2 construct: gene FBP2
T2 sequence (O00757 1-339): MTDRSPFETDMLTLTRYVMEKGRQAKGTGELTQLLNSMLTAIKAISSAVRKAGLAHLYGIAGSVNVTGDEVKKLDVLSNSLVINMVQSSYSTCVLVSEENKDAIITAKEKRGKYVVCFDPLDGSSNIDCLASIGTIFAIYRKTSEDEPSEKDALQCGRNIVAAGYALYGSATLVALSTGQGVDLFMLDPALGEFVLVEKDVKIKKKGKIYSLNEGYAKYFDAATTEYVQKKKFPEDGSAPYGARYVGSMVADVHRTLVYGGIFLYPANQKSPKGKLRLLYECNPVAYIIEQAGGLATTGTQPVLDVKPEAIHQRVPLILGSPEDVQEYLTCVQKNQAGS

- IC50 [1]: 3650 nM
- IC50 [2]: 190 nM
SMILES: Nc1ncnc2c1ncn2[C@@H]1O[C@H](COP(=O)(O)O)[C@@H](O)[C@H]1O [AMP]
